Columns and labels:
[1] = test system: endothelial tip cells; assay: Filopodia number and length on endothelial tip cells, OIR mouse model; assay type: in vivo, C57BL/6J mice; settings: OIR mice injected with YC-1 [25-100 μl], vs DMSO-treated retinas
Procedure: FIG. 4 the Influence of YC-1 on filopodia number and length. […] Image of tip cells along the leading edge of vascularization from; [A] Non-treated ischemic retinas; [B] DMSO-treated retinas; [C, D, E, and F] represent retinas from animals that were injected with YC-1 [25-100 μl]. Filopodia lengths and number/tip cell were not influenced by DMSO treatment. […] [n=5 per group].
A. Filopodia from DMSO-treated retinas had approximately similar lengths as the nontreated ischemic retinas. […] [ANOVA, ***P<0.001; **P<0.01 between YC-1 and DMSO]. There were 24 tip cells/retina that were averaged. [n=5 per group].
B. DMSO has no influence on the number of filopodia/tip cell. […] [ANOVA, ***P<0.001; **P<0.01 between YC-1 and DMSO]. There were 24 tip cells/retina that were averaged. [n=5 per group].
Retinal NV was induced in newborn mice as described previously. Briefly, P7 mice were exposed with their nursing mother, for 5 days [between P7 and P12] to hyperoxic conditions, by incubating them in an airtight chamber [PROOX 110 chamber O2 controller; Biospherix Ltd., Redfield, N.Y.] ventilated by a mixture of O2 and air to a final oxygen fraction of 75±2%. These incubation conditions induced vaso-obliteration and subsequent cessation of vascular development in the capillary beds of the central retina. […]

[2] = test system: R28 cells; assay: Real time RT-PCR analysis, in vitro, R28; assay type: cell-based, rat
Procedure: A transformed Müller cell line [rMC-1] were grown in cell cultures in DMEM supplemented with 15% FBS, as well as with a fungicide mixture and 0.5% gentamicin in a humidified atmosphere of 5% CO2/95% air. Medium was changed every 2-3 days, and cells were grown to confluence in a 150-mm dish. Cells were split into 60-mm dishes and were used in the experiments when confluent. […] cells are immortalized rat retinal neurosensory/neuoroglial progenitor cells, by transfection with Adenovirus 12S E1A into the neonatal retinal tissue. […] cells express genes characteristic of neurons, as well as functional neuronal properties. […] cells were cultured in DMEM/F12 medium in a 1:1 mixture, supplemented with 5% FBS, 1.5 mM L-glutamine, 7.5 mM sodium pyruvate, 0.1 mM nonessential amino acids, 1×MEM, 0.37% sodium bicarbonate and 10 μg/ml gentamicin. Cells were incubated at 37° C. in the presence of 5% CO2. Human retinal microvascular endothelial cells [[…]][40,000 cells/well] were seeded in a 96-well plate and allowed to adhere overnight and incubated at 37° C. in normoxia. Cells were then cultured in 150 μl of CS-C medium supplemented with 10% FBS and in the presence of 1-100 μM YC-1 or DMSO [0.2%]. Cells were placed in airtight chambers [BioSpherix, Redfield, N.Y.] and the O2 tension was maintained at 1.2% by using Pro-Ox Model 110 O2 regulator [BioSpherix, Redfield, N.Y.]. The chamber was purged with a gas mixture of 5.32% CO2, and 93.48% N2. […] We used the primers summarized in [FIG. 6C] for RT-PCR. Gene-specific molecular beacons and primers were designed to encompass the genes of interest, with beacon's annealing site to overlap with the exon-exon junctions for additional specificity [Beacon Designer 6.0, Premier Biosoft International, Palo Alto, Calif., USA]. Threshold cycle [Ct] values for the different samples were utilized for the calculation of gene expression fold change using the formula 2 to the minus power of delta delta ct. Fold changes in the HIF-1, VEGF, PDGF-B, GFAP and iNOS gene relative to the β-actin endogenous control gene were determined by the following equation: fold change=2-Δ[ΔC T], where change in threshold cycle [ΔCT]=CT [gene of interest]-CT [β-actin] and Δ [ΔCT]=ΔCT [treated]-ΔCT [untreated].

[3] = test system: R28 cells
[4] = R28, hypoxia 48 hours, YC-1 25-100 μM, vs DMSO-treated hypoxic cells

Compound: OCc1ccc(-c2nn(Cc3ccccc3)c3ccccc23)o1 [YC-1, 3-(5′-hydroxymethyl-2′-furyl)-1-benzylindazole]
- number of filopodia on endothelial tip cells [1]: significantly and dose-dependently reduced
- total length of filopodia on endothelial tip cells [1]: significantly and dose-dependently reduced
- PDGF-B mRNA level [2, 4]: significant dose-dependent attenuations
- VEGF mRNA level [2, 4]: significant dose-dependent attenuations
- iNOS mRNA level [2, 4]: significant dose-dependent attenuations
- GFAP mRNA level ([2]; R28, hypoxia, YC-1 25-100 μM, vs DMSO-treated hypoxic cells, normalized to β-actin): significant dose-dependent attenuations
- HIF-1α message level ([2]; R28, pre- vs post-YC-1 treatment): no differences
- cell viability (DAPI exclusion) [3]: comprised the majority of cells

From patent US20140163082A1, “PYRAZOLYL COMPOUNDS FOR USE IN REVERSING REACTIVE GLIOSIS” (priority 2011, published 2014)
